Like-named read-outs stand apart in the source and are kept apart here.
Legend:
COV504 cells = test: Inhibition of cell proliferation, CyQUANT Direct, COV504; type: cell-based; details: Homo sapiens; COV504 ovarian cancer cells, 72-hour; read-out: COV 504 proliferation calculated IC50
CDK2/Cyclin E1 complex = CDK2/Cyclin E1 complex (Homo sapiens, UniProt P24941); test: CDK2 kinase inhibition assay (Caliper/LabChip EZ Reader)
HCC70 cells = test: Inhibition of cell proliferation, CyQUANT Direct, HCC70; type: cell-based, human; details: Homo sapiens, read-out: HCC 70 proliferation calculated IC50
[1] = molecular target: CDK12 (aa686-1082)/Cyclin K complex (Homo sapiens, UniProt Q9NYV4); test: CDK12 kinase inhibition assay (Caliper/LabChip EZ Reader)
Chain of CDK12 (aa686-1082)/Cyclin K complex (Q9NYV4 686-1082): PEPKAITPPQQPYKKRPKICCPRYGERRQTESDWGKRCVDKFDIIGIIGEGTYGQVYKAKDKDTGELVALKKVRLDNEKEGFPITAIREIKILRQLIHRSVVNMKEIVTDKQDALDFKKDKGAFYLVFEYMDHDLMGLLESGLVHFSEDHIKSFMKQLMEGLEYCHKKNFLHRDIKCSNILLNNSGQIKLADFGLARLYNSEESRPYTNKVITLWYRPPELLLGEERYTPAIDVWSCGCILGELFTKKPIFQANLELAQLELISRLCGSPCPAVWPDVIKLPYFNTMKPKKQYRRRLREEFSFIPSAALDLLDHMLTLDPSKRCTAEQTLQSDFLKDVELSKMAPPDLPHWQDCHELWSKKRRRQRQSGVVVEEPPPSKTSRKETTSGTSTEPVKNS
Chain of CDK12 (aa686-1082)/Cyclin K complex (O75909 whole entry partner, the tested form may be a part): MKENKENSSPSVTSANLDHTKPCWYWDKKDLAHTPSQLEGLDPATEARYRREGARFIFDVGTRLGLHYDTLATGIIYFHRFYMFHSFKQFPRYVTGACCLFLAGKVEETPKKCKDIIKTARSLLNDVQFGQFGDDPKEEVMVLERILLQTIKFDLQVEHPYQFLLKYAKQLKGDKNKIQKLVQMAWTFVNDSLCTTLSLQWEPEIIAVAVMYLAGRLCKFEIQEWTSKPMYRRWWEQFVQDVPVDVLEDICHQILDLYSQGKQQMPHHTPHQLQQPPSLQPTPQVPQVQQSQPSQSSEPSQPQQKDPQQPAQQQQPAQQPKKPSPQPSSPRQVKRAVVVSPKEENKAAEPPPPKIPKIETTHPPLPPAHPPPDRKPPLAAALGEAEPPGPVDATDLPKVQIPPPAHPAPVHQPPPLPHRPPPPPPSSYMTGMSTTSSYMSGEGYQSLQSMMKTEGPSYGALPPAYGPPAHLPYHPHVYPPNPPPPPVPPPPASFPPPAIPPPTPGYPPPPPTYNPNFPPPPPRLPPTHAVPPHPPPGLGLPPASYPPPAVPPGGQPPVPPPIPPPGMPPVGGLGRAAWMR
Method: Compounds of the invention were assayed for inhibition of CDK7, CDK9, CDK12, and CDK2 activity at Biortus Biosciences (Jiangyin, Jiangsu Province, P.R. of China) using kinase assays for each CDK developed with a Caliper/LabChip EZ Reader (Perkin Elmer, Waltham, MA).
Furthermore, the CDK9 inhibition assay used CDK9/Cyclin T1 complex (8 nM) and “5-FAM-CDK9tide” peptide substrate (2 μM, synthesized fluorophore-labeled peptide with the following sequence: 5-FAM-GSRTPMY-NH2 (SEQ ID NO:2) where 5-FAM is defined above and NH2 signifies a C-terminal amide) with 10 mM MgCl2 in the buffer composition listed above. The CDK12 inhibition assay used CDK12 (aa686-1082)/Cyclin K complex (50 nM) and “5-FAM-CDK9tide” (2 μM) as defined above, with 2 mM MgCl2 in the buffer composition above. Additionally, the CDK2 inhibition assay used CDK2/Cyclin E1 complex (0.5 nM) and “5-FAM-CDK7tide” (2 μM) as defined above, with 2 mM MgCl2 in the buffer composition listed above.
The incubation period at 27° C. for each CDK inhibition assay was chosen such that the fraction of phosphorylated peptide product produced in each assay, relative to the total peptide concentration, was approximately 20% (±5%) for the uninhibited kinase (35 min. for CDK7, 35 min. for CDK2, 3 hr. for CDK12, 15 min. for CDK9).

COV318 cells = test: Inhibition of cell proliferation, CyQUANT Direct, COV318; type: cell-based; details: Homo sapiens; COV318 ovarian cancer cells, 72-hour; read-out: COV 318 proliferation calculated IC50
[2] = molecular target: CDK7/Cyclin H/MAT1 complex (Homo sapiens, UniProt P50613); test: CDK7 kinase inhibition assay (Caliper/LabChip EZ Reader)
Chain of CDK7/Cyclin H/MAT1 complex (P50613 whole entry): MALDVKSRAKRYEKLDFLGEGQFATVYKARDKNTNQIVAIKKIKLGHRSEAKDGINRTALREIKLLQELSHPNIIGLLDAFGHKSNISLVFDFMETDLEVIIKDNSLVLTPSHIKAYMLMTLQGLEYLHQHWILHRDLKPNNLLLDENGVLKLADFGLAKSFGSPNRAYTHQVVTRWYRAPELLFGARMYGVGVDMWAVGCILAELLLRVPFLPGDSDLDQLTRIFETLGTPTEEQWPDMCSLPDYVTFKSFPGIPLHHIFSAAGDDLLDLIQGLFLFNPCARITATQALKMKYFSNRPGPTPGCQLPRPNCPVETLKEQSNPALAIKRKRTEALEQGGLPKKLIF
Chain of CDK7/Cyclin H/MAT1 complex (P51946 whole entry partner): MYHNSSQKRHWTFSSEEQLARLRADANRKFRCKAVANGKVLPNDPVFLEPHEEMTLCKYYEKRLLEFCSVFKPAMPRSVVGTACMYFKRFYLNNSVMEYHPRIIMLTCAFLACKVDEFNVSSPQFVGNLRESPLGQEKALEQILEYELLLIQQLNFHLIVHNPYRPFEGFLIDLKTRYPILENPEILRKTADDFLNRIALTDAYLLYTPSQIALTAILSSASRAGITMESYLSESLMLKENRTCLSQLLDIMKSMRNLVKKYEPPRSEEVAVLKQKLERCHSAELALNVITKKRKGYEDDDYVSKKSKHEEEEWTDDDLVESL
Chain of CDK7/Cyclin H/MAT1 complex (P51948 whole entry partner): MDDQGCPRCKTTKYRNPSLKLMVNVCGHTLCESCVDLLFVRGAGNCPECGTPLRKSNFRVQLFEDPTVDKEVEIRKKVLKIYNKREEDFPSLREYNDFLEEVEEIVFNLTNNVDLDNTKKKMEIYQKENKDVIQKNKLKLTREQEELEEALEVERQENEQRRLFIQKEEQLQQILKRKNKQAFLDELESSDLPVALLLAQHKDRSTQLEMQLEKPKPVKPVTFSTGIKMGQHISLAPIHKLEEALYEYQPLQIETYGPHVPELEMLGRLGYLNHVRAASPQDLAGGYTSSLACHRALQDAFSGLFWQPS

MB453 cells = test: Inhibition of cell proliferation, CyQUANT Direct, MB453; type: cell-based, human; details: Homo sapiens, read-out: MB 453 proliferation calculated IC50
CDK9/Cyclin T1 complex = CDK9/Cyclin T1 complex (Homo sapiens, UniProt P50750); test: CDK9 kinase inhibition assay (Caliper/LabChip EZ Reader)
Chain of CDK9/Cyclin T1 complex (P50750 whole entry): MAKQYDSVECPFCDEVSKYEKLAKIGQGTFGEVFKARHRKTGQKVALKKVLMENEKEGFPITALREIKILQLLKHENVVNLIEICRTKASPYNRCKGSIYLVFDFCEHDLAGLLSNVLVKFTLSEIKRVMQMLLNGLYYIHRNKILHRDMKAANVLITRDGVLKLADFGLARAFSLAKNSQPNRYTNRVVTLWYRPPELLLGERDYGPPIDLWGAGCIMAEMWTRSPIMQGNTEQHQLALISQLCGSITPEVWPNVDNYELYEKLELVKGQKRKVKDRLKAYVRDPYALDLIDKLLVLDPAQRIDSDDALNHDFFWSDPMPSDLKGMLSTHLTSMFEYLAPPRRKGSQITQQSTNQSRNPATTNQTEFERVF
Chain of CDK9/Cyclin T1 complex (O60563 whole entry partner): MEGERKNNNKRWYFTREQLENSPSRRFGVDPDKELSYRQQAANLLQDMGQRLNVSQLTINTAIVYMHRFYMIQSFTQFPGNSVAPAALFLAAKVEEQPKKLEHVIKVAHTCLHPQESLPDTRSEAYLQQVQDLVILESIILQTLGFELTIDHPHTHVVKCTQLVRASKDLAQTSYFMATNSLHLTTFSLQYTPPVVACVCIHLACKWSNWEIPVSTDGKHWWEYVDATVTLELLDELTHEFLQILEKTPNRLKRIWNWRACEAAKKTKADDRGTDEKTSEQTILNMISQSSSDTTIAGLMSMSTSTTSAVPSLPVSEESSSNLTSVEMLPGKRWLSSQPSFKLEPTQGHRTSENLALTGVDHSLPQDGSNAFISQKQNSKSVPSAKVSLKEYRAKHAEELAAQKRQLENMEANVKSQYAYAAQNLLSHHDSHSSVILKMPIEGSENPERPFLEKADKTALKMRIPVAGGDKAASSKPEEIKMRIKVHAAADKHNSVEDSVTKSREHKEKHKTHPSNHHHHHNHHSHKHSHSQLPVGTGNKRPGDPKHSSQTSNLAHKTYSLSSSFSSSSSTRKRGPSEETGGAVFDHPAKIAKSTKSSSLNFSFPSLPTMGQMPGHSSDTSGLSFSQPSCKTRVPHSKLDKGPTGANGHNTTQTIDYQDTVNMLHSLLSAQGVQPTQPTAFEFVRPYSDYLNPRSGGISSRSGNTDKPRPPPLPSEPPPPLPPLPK

[3] = HCC70 triple negative breast cancer cells, 72-hour
[4] = MB453 triple negative breast cancer cells, 72-hour

Structure (SMILES) | IC50 (COV504 cells) [µM] | IC50 (CDK2/Cyclin E1 complex) [µM] | IC50 (HCC70 cells; [3]) [µM] | IC50 [1] [µM] | IC50 (COV318 cells) [µM] | IC50 [2] [µM] | IC50 (MB453 cells; [4]) [µM] | IC50 (CDK9/Cyclin T1 complex) [µM] | IC50 (HCC70 cells; HCC70, 72 h) [µM] | IC50 (MB453 cells; 72 h) [µM]
Cc1noc(C)c1-c1ccc2c(-c3nc(N[C@@H]4C[C@H]5CC[N@](CC5)C4)ncc3C(F)(F)F)cn(S(=O)(=O)c3ccccc3)c2n1 [Compound 142, (3R)—N-[4-[1-(benzenesulfonyl)-6-(3,5-dimethylisoxazol-4-yl)pyrrolo[2,3-b]pyridin-3-yl]-5-(trifluoromethyl)pyrimidin-2-yl]-1-azabicyclo[3.2.2]nonan-3-amine] | 0.1 to 0.5 | > 0.5 | 0.1 to 0.5 | > 0.5 | 0.1 to 0.5 | < 0.03 | 0.1 to 0.5 | > 0.5 |  | 
Cc1noc(C)c1-c1ccc2c(-c3nc(N[C@H]4CCC[C@@H]4N4CCCC4)ncc3C(F)(F)F)c[nH]c2c1 [Compound 143, 4-[6-(3,5-dimethylisoxazol-4-yl)-1H-indol-3-yl]-N-[(1S,2S)-2-pyrrolidin-1-ylcyclopentyl]-5-(trifluoromethyl)pyrimidin-2-amine] | < 0.1 | > 0.5 | 0.1 to 0.5 | > 0.5 | 0.5 to 2 | < 0.03 | < 0.1 | > 0.5 |  | 
Cc1noc(C)c1-c1ccc2c(-c3nc(N[C@H]4CCCC4N4CCCC4)ncc3C(F)(F)F)c[nH]c2n1 (stereo partly drawn) [Compound 144, 4-[6-(3,5-dimethylisoxazol-4-yl)-1H-pyrrolo[2,3-b]pyridin-3-yl]-N-[(1S)-2-pyrrolidin-1-ylcyclopentyl]-5-(trifluoromethyl) pyrimidin-2-amine] | < 0.1 | > 0.5 | 0.1 to 0.5 | > 0.5 | < 0.1 | < 0.03 | < 0.1 | > 0.5 |  | 
CCN[C@H]1CCC[C@@H]1Nc1ncc(C(F)(F)F)c(-c2c[nH]c3nc(-c4c(C)noc4C)ccc23)n1 [Compound 145, (1S, 2S)—N1-[4-[6-(3,5-dimethylisoxazol-4-yl)-1H-pyrrolo [2,3-b]pyridin-3-yl]-5-(trifluoromethyl)pyrimidin-2-yl]-N2-ethyl-cyclopentane-1,2-diamine] | < 0.1 | > 0.5 |  | > 0.5 | < 0.1 | < 0.03 |  | > 0.5 | < 0.1 | < 0.1
Cc1noc(C)c1-c1ccc2c(-c3nc(N[C@H]4CCC[C@@H]4N4CCC4)ncc3C(F)(F)F)c[nH]c2n1 [Compound 146, N-[(1S, 2S)-2-(azetidin-1-yl)cyclopentyl]-4-[6-(3,5-dimethylisoxazol-4-yl)-1H-pyrrolo [2,3-b]pyridin-3-yl]-5-(trifluoromethyl) pyrimidin-2-amine] | < 0.1 | > 0.5 |  | > 0.5 | > 2 | < 0.03 |  | > 0.5 | < 0.1 | < 0.1
Cc1noc(C)c1-c1ccc2c(-c3nc(N[C@H]4CCC[C@@H]4NCC(F)F)ncc3C(F)(F)F)c[nH]c2n1 [Compound 147, (1S, 2S)—N2-(2,2-difluoroethyl)-N1-[4-[6-(3,5-dimethylisoxazol-4-yl)-1H-pyrrolo[2,3-b]pyridin-3-yl]-5-(trifluoromethyl)pyrimidin-2-yl] cyclopentane-1,2-diamine] | 0.1 to 0.5 | > 0.5 | 0.5 to 2 | > 0.5 | > 2 | < 0.03 | 0.1 to 0.5 | > 0.5 |  | 
Cc1noc(C)c1-c1ccc2c(-c3nc(N[C@H]4CCC[C@@H]4N4CC[C@@H](F)C4)ncc3C(F)(F)F)c[nH]c2n1 [Compound 148, 4-[6-(3,5-dimethylisoxazol-4-yl)-1H-pyrrolo[2,3-b]pyridin-3-yl]-N-[(1S,2S)-2-[(3R)-3-fluoropyrrolidin-1-yl]cyclopentyl]-5-(trifluoromethyl)pyrimidin-2-amine] | < 0.1 | > 0.5 | 0.1 to 0.5 | > 0.5 | > 2 | < 0.03 | 0.1 to 0.5 | > 0.5 |  | 
Cc1noc(C)c1-c1ccc2c(-c3nc(N[C@H]4CCC[C@@H]4N4CC[C@H](F)C4)ncc3C(F)(F)F)c[nH]c2n1 [Compound 150, 4-[6-(3,5-dimethylisoxazol-4-yl)-1H-pyrrolo[2,3-b]pyridin-3-yl]-N-[(1S,2S)-2-[(3S)-3-fluoropyrrolidin-1-yl]cyclopentyl]-5-(trifluoromethyl)pyrimidin-2-amine] | 0.5 to 2 | > 0.5 | 0.5 to 2 | > 0.5 | > 2 | 0.03 to 0.1 | > 2 | > 0.5 |  | 
Cc1noc(C)c1-c1ccc2c(-c3nc(N[C@H]4CCC[C@@H]4NCCF)ncc3C(F)(F)F)c[nH]c2n1 [Compound 151, (1S,2S)—N1-[4-[6-(3,5-dimethylisoxazol-4-yl)-1H-pyrrolo[2,3-b]pyridin-3-yl]-5-(trifluoromethyl)pyrimidin-2-yl]-N2-(2-fluoroethyl)cyclopentane-1,2-diamine] | < 0.1 | > 0.5 | < 0.1 | > 0.5 | > 2 | < 0.03 | 0.1 to 0.5 | > 0.5 |  | 
Cc1noc(C)c1-c1ccc2c(-c3nc(N[C@H]4CCC[C@@H]4NCCO)ncc3C(F)(F)F)c[nH]c2n1 [Compound 154, 2-[[(1S,2S)-2-[[4-[6-(3,5-dimethylisoxazol-4-yl)-1H-pyrrolo [2,3-b]pyridin-3-yl]-5-(trifluoromethyl)pyrimidin-2-yl]amino]cyclopentyl]amino]ethanol] | < 0.1 | > 0.5 | < 0.1 | > 0.5 | 0.1 to 0.5 | < 0.03 | < 0.1 | > 0.5 |  | 
Cc1noc(C)c1-c1ccc2c(-c3nc(N[C@H]4CCC[C@@H]4N4CC(F)C4)ncc3C(F)(F)F)c[nH]c2n1 [Compound 155, 4-[6-(3,5-dimethylisoxazol-4-yl)-1H-pyrrolo [2,3-b]pyridin-3-yl]-N-[(1S, 2S)-2-(3-fluoroazetidin-1-yl)cyclopentyl]-5-(trifluoromethyl) pyrimidin-2-amine] | > 2 | > 0.5 | > 2 | > 0.5 | > 2 | 0.1 to 0.5 | > 2 | > 0.5 |  | 
Cc1noc(C)c1-c1ccc2c(-c3nc(N[C@H]4CCC[C@H]4N4CC(F)C4)ncc3C(F)(F)F)c[nH]c2n1 [Compound 156, 4-[6-(3,5-dimethylisoxazol-4-yl)-1H-pyrrolo [2,3-b]pyridin-3-yl]-N-[(1S, 2R)-2-(3-fluoroazetidin-1-yl)cyclopentyl]-5-(trifluoromethyl) pyrimidin-2-amine] | 0.1 to 0.5 | > 0.5 | 0.1 to 0.5 | > 0.5 | > 2 | < 0.03 | 0.5 to 2 | > 0.5 |  | 
Cc1noc(C)c1-c1ccc2c(-c3nc(N[C@H]4CCC[C@@H]4N)ncc3C(F)(F)F)n[nH]c2n1 [Compound 157, (1S,2S)—N1-[4-[6-(3,5-dimethylisoxazol-4-yl)-1H-pyrazolo [3,4-b]pyridin-3-yl]-5-(trifluoromethyl)pyrimidin-2-yl]cyclopentane-1,2-diamine] | 0.1 to 0.5 | > 0.5 | 0.1 to 0.5 | > 0.5 | 0.1 to 0.5 | < 0.03 | 0.1 to 0.5 | > 0.5 |  | 
Cc1nsc(-c2ccc3c(-c4nc(N[C@H]5CCC[C@@H]5N)ncc4C(F)(F)F)c[nH]c3n2)n1 [Compound 158, (1S,2S)—N1-[4-[6-(3-methyl-1,2,4-thiadiazol-5-yl)-1H-pyrrolo [2,3-b]pyridin-3-yl]-5-(trifluoromethyl)pyrimidin-2-yl]cyclopentane-1,2-diamine] | > 2 | > 0.5 | 0.5 to 2 | > 0.5 | > 2 | < 0.03 | 0.5 to 2 | > 0.5 |  | 
Cc1noc(C)c1-c1ccc2c(-c3nc(N[C@H]4CCC[C@@H]4N4CC(O)C4)ncc3C(F)(F)F)c[nH]c2n1 [Compound 159, 1-[(1S,2S)-2-[[4-[6-(3,5-dimethylisoxazol-4-yl)-1H-pyrrolo[2,3-b]pyridin-3-yl]-5-(trifluoromethyl)pyrimidin-2-yl]amino]cyclopentyl] azetidin-3-ol] | 0.1 to 0.5 | > 0.5 | < 0.1 | > 0.5 | > 2 | < 0.03 | 0.1 to 0.5 | > 0.5 |  | 
CCN[C@H]1CC[C@@H]1Nc1ncc(C(F)(F)F)c(-c2c[nH]c3nc(-c4c(C)noc4C)ccc23)n1 [Compound 160, (1S,2S)—N2-[4-[6-(3,5-dimethylisoxazol-4-yl)-1H-pyrrolo[2,3-b]pyridin-3-yl]-5-(trifluoromethyl)pyrimidin-2-yl]-N1-ethyl-cyclobutane-1,2-diamine] | < 0.1 | > 0.5 | < 0.1 | > 0.5 | < 0.1 | < 0.03 | < 0.1 | > 0.5 |  | 

— patent US11918592B2, “Inhibitors of cyclin dependent kinase 7 (CDK7)” (Syros Pharmaceuticals, Inc., priority 2018, dated 2024)
